“Also recorded” adds a separate entry of the source.
Experiments:
maize B104 = assay: Herbicide-resistance capacity testing of transgenic maize (spray); assay type: in vivo; conditions: 4.48 kg/ha foliage spray, 14 days / 15 days
Text: 1. Vector construction: the overexpression vector was altered from pCambia3300, containing a Bar resistance gene that can be used as a selection marker for bialaphos (glufosinate). The AAD-like gene, QYD42, SEQ ID NO. 83, was linked to the pCambia3300 at the BamH I restriction site by seamless cloning to construct the transgenic vector pQY2329, of which the expression cassette consisted of a maize ubiquitin-1 promoter, the AAD gene and a Nos terminator, as shown in FIG. 7-1.
2. Genetic transformation of maizes: Maize transformation was carried out by the Agrobacterium-mediated immature embryo transformation method (Jones T, Lowe K, Hoerster G, et al. Maize Transformation Using the Morphogenic Genes Baby Boom and Wuschel2. Methods Mol Biol. 2019; 1864:81-93. Doi: 10.1007/978-1-4939-8778-8 6). The Agrobacterium (EHA105) comprising the pQY2329 overexpression vector was inoculated into YEP liquid medium (containing 25 mg/L Rifampicin and 50 mg/L Kanamycin), and shaking-cultured a t 28° C., 220 rmp/min overnight until the OD600 was about 1.0-1.5, then centrifuged at 6000 rmp/min for 10 min to collect the cells into a 50 ml centrifuge tube (sterilized). After discarding the supernatant, the cells were resuspended using MS infect culture medium (containing 68.5 g/L sucrose, 36 g/L glucose, pH 5.8) to OD550=0.8. […]

Arabidopsis thaliana = assay: Herbicide resistance of transgenic Arabidopsis thaliana seedlings on plate medium (root growth); assay type: in vivo; conditions: plate medium: 2,4-D 0.3 μmol; 2,4-DB sodium 0.7 μmol; MCPA 0.1 μmol
Protocol: Expression in Arabidopsis thaliana was regulated by its AtUbi10 Arabidopsis thaliana ubiquitin promoter and the MAS (mannopine synthase) terminator. Hygromycin resistance gene (HygR=hpt) served as the selection marker.
Preparation of Agrobacterium infection solution: An activated Agrobacterium (GV3101) monoclone was picked and inoculated in 30 ml YEP liquid medium [yeast powder 10 g/L, tryptone 10 g/L, NaCl 5 g/L, 25 mg/L Rifampicin and 50 mg/L Kanamycin], shaking-cultured at 200 rmp/min, 28° C. overnight until the OD600 was about 1.0-1.5, then centrifuged at 6000 rmp/min for 10 min to collect the bacteria, and the supernatant was discarded. Arabidopsis thaliana infection solution (sucrose 50 g/L, Silwet L-77 300 μL/L, no need to adjust pH) was used to resuspend the cells to OD600=0.8 for later use.
Genetic transformation of Arabidopsis thaliana by flower dipping: Before transformation of Arabidopsis thaliana plants, attentions were paid to whether the plants were growing well, the inflorescences were abundant, and no stress response occurred. The first transformation was performed when plants were about 20 cm high. Plants could be properly watered if the soil was dry. The grown siliques were cut off with scissors the day before transformation. The inflorescences of the plants to be transformed were soaked in the above-mentioned Agrobacterium solution for 30 seconds to 1 minute, which was stirred gently during the period. And a layer of liquid film should appear on the infiltrated plant. The transformed plants were cultured in a dark environment for 24 hours, and then taken out and grown in a normal light environment. A second transformation could be performed in the same way a week later. […]

SMILES: O=C(O)COc1ccc(Cl)cc1Cl [2,4-D, (2,4-dichlorophenoxy)acetic acid, reference compound]
- Effect of the herbicide spray on non-transgenic maize B104 (maize B104): apparent phytotoxicity, root nodules, reduced root system and easily-lodging plant; also recorded: stem bases of maize B104 are swollen
- Effect of the herbicide on seminal roots of wild-type Col-0 (Arabidopsis thaliana): uncapable of growing roots; also recorded: seminal roots are inhibited; also recorded: seminal roots are not able to grow
